Measurements from ChEMBL document CHEMBL4052759, “Discovery of DS79182026: A potent orally active hepcidin production inhibitor” (Bioorg Med Chem Lett, 2017).
Each block holds one compound with its values, some of them ahead of it.

Experiments:
[1] = target: T1, Serine/threonine-protein kinase 3 (Homo sapiens) (UniProt Q13188); test: Inhibition of MST2 (unknown origin) at 0.078 uM relative to control
T1 sequence (whole entry): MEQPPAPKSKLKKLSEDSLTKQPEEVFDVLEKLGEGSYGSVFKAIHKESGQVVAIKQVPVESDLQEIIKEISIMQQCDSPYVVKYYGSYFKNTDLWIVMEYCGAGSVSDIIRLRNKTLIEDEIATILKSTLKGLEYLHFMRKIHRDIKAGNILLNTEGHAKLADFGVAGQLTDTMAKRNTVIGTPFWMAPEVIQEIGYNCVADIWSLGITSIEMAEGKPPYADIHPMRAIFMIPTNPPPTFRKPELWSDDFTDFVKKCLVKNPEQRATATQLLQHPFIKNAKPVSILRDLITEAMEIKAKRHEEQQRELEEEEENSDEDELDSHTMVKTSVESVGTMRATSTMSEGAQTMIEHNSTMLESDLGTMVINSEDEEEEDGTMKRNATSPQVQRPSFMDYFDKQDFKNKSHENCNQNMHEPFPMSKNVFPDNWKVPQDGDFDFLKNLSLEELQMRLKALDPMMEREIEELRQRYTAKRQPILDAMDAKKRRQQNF

[2] = target: T2, Interleukin-1 receptor-associated kinase 4 (Homo sapiens) (UniProt Q9NWZ3); test: Inhibition of IRAK4 (unknown origin) at 0.078 uM relative to control
T2 sequence (whole entry): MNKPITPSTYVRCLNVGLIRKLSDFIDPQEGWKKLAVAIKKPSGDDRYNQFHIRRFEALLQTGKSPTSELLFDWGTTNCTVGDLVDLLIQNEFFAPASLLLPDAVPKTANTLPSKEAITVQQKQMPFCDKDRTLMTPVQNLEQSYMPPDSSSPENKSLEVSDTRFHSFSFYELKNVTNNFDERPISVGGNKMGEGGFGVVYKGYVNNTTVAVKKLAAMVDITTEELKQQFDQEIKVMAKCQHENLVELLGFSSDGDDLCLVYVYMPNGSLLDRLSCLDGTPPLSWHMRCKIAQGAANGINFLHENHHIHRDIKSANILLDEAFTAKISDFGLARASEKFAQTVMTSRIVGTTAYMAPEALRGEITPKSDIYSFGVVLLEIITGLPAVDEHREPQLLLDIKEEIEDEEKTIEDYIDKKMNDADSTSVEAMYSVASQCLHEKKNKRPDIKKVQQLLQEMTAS

[3] = target: Serine/threonine-protein kinase PAK 2 (Homo sapiens) (UniProt Q13177); test: Inhibition of PAK2 (unknown origin) at 0.49 uM relative to control
[4] = target: Vascular endothelial growth factor receptor 1 (Homo sapiens) (UniProt P17948); test: Inhibition of FLT1 (unknown origin) at 0.49 uM relative to control
[5] = target: RAF proto-oncogene serine/threonine-protein kinase (Homo sapiens) (UniProt P04049); test: Inhibition of c-Raf (unknown origin) at 0.49 uM relative to control
[6] = target: Cyclin-dependent kinase 3 (Homo sapiens) (UniProt Q00526); test: Inhibition of CDK3 (unknown origin) at 0.49 uM relative to control
[7] = target: T1, Serine/threonine-protein kinase 3 (Homo sapiens); test: Inhibition of MST2 (unknown origin) at 0.49 uM relative to control
[8] = target: Tyrosine-protein kinase receptor UFO (Homo sapiens) (UniProt P30530); test: Inhibition of AXL (unknown origin) at 0.49 uM relative to control
[9] = target: Protein kinase C gamma type (Homo sapiens) (UniProt P05129); test: Inhibition of PKC-gamma (unknown origin) at 0.49 uM relative to control
[10] = target: Vascular endothelial growth factor receptor 2 (Homo sapiens) (UniProt P35968); test: Inhibition of KDR (unknown origin) at 0.49 uM relative to control
[11] = target: Homeodomain-interacting protein kinase 4 (Homo sapiens) (UniProt Q8NE63); test: Inhibition of HIPK4 (unknown origin) at 0.49 uM relative to control
[12] = target: Inhibitor of nuclear factor kappa-B kinase subunit epsilon (Homo sapiens) (UniProt Q14164); test: Inhibition of IKBKE (unknown origin) at 0.45 uM relative to control
[13] = target: Dual specificity tyrosine-phosphorylation-regulated kinase 4 (Homo sapiens) (UniProt Q9NR20); test: Inhibition of DYRK4 (unknown origin) at 0.45 uM relative to control
[14] = tested on: Mast/stem cell growth factor receptor Kit (Homo sapiens), P10721 [T670I]; test: Inhibition of KIT T670I mutant (unknown origin) at 0.45 uM relative to control
[15] = target: MAP kinase-activated protein kinase 3 (Homo sapiens) (UniProt Q16644); test: Inhibition of MAPKAPK3 (unknown origin) at 0.45 uM relative to control
[16] = target: T3, Serine/threonine-protein kinase D2 (Homo sapiens) (UniProt Q9BZL6); test: Inhibition of PKD2 (unknown origin) at 0.45 uM relative to control
T3 sequence (whole entry): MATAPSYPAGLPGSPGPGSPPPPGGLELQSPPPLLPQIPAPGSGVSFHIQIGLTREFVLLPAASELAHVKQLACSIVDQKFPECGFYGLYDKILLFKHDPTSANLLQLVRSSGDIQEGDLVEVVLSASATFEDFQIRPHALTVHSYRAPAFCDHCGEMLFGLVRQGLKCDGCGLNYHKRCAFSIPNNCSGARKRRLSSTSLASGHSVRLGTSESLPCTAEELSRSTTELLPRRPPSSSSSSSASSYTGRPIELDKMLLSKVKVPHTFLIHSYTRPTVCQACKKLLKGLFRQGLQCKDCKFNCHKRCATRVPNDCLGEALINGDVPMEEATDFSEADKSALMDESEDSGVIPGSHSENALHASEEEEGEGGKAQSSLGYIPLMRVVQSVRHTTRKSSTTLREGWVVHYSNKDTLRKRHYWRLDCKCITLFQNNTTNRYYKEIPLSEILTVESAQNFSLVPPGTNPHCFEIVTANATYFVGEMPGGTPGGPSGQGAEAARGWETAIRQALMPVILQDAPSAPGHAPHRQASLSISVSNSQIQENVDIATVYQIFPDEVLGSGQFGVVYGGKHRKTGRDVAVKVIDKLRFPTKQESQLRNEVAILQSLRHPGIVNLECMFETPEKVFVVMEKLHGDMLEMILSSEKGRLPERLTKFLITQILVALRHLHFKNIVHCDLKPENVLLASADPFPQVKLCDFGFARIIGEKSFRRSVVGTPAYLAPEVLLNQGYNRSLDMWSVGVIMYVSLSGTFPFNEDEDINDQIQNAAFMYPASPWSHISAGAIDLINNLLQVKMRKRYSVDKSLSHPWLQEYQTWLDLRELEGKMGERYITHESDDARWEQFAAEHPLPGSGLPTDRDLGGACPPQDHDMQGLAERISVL

[17] = target: Casein kinase I isoform alpha (Homo sapiens) (UniProt P48729); test: Inhibition of CSNK1A1 (unknown origin) at 0.45 uM relative to control
[18] = target: Serine/threonine-protein kinase Sgk3 (Homo sapiens) (UniProt Q96BR1); test: Inhibition of SGK3 (unknown origin) at 0.45 uM relative to control

Chain of Casein kinase I isoform alpha (Homo sapiens) (P48729 2-337 limits assumed): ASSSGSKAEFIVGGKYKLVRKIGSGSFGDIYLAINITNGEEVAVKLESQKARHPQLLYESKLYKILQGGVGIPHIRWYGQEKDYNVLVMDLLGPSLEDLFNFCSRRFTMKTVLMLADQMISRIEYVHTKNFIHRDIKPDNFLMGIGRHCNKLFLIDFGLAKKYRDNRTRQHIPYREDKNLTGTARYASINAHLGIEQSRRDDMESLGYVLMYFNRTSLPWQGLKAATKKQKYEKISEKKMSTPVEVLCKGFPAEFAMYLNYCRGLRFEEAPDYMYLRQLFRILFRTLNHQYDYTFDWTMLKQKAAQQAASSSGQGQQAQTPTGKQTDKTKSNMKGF
Chain of Serine/threonine-protein kinase PAK 2 (Homo sapiens) (Q13177 whole entry): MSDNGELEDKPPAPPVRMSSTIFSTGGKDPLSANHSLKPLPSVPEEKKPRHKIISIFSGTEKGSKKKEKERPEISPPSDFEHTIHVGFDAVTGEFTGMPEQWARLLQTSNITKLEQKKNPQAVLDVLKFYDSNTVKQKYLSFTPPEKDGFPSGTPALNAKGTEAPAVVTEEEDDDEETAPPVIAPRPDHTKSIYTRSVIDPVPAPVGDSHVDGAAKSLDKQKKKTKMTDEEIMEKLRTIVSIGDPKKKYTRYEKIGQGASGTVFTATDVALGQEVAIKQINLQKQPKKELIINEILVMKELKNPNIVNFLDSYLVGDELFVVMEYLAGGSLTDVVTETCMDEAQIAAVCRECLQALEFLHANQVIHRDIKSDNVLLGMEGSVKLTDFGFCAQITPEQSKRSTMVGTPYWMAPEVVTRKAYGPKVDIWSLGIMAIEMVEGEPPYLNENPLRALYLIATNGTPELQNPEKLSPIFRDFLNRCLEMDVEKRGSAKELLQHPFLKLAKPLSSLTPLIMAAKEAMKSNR
Chain of Vascular endothelial growth factor receptor 2 (Homo sapiens) (P35968 whole entry): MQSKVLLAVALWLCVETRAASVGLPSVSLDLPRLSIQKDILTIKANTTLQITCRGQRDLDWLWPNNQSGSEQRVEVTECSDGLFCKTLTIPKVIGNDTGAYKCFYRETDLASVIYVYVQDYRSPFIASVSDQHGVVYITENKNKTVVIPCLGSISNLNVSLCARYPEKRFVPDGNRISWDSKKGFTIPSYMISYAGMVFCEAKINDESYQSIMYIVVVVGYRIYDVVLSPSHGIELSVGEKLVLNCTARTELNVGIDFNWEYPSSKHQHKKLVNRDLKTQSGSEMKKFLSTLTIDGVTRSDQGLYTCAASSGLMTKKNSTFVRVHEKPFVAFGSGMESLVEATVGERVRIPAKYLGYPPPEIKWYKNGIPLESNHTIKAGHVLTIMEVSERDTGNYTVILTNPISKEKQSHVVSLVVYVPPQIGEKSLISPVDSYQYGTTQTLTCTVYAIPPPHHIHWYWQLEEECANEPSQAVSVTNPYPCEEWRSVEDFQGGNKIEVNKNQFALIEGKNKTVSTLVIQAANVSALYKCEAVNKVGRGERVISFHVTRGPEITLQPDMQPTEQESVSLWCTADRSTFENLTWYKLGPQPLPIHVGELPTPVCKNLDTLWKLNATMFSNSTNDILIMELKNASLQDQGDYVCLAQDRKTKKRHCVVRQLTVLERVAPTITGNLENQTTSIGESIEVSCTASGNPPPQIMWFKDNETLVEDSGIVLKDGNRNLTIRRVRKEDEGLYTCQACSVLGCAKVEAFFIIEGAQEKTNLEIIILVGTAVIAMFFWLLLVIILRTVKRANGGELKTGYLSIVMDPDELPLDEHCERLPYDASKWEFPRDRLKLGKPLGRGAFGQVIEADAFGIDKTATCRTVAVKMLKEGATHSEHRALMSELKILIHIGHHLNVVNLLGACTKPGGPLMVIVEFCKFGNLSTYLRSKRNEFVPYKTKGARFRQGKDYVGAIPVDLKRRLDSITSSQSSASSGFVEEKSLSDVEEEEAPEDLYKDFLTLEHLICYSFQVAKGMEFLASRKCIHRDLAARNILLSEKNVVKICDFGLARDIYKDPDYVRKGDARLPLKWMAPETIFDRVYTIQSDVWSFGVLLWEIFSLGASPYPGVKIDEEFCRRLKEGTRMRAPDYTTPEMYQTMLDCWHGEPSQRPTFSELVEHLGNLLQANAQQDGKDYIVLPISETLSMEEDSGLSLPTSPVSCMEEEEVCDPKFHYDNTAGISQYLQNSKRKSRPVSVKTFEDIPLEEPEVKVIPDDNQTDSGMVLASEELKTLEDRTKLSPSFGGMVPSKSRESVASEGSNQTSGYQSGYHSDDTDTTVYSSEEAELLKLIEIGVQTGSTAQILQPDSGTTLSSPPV
Chain of Dual specificity tyrosine-phosphorylation-regulated kinase 4 (Homo sapiens) (Q9NR20 whole entry): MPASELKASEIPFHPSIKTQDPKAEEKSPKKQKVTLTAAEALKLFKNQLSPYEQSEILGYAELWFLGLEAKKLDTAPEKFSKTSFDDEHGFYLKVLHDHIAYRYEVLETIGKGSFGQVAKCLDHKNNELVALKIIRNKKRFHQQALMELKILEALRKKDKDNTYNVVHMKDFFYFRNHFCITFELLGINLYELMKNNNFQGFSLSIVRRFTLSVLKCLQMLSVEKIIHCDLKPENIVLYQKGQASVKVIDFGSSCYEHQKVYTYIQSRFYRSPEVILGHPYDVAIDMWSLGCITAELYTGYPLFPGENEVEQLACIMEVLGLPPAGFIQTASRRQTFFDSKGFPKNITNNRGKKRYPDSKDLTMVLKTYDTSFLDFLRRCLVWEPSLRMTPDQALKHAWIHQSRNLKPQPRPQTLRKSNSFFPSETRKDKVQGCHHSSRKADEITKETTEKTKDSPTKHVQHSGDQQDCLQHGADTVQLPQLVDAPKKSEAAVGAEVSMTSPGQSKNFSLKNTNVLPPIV
Chain of Tyrosine-protein kinase receptor UFO (Homo sapiens) (P30530 whole entry): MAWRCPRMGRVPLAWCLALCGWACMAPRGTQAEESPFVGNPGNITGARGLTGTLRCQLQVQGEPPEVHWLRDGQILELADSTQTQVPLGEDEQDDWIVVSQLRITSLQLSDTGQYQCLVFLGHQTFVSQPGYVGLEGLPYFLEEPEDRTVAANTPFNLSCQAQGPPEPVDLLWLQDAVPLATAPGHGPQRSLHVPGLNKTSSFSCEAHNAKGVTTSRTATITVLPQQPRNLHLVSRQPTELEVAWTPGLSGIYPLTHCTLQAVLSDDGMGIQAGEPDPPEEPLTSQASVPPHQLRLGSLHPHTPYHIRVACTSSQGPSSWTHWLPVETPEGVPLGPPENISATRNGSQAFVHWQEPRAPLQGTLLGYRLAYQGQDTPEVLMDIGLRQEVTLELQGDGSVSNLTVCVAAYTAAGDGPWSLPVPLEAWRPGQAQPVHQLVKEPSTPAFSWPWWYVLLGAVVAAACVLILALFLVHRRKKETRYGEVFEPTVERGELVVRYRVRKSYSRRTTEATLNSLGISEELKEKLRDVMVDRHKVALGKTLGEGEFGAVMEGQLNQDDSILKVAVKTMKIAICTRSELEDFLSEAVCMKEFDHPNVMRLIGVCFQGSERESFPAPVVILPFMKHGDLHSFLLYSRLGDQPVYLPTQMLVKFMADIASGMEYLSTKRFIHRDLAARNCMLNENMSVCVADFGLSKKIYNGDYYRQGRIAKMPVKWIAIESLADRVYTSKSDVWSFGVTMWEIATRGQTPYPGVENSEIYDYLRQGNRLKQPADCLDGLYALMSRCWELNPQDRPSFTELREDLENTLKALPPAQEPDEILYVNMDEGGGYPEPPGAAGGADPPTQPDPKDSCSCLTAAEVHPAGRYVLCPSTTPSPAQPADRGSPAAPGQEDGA
Chain of MAP kinase-activated protein kinase 3 (Homo sapiens) (Q16644 whole entry, looked up): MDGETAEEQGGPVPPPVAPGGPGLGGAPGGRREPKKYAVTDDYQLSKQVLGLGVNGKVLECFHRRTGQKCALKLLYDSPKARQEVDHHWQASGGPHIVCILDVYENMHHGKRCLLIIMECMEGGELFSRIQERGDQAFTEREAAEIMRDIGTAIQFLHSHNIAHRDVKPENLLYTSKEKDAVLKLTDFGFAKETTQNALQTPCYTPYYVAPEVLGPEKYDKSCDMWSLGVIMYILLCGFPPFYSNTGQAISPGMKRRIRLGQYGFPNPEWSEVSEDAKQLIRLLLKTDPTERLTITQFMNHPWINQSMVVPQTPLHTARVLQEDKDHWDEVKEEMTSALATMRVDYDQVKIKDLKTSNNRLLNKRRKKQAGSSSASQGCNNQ
Chain of Cyclin-dependent kinase 3 (Homo sapiens) (Q00526 whole entry, looked up): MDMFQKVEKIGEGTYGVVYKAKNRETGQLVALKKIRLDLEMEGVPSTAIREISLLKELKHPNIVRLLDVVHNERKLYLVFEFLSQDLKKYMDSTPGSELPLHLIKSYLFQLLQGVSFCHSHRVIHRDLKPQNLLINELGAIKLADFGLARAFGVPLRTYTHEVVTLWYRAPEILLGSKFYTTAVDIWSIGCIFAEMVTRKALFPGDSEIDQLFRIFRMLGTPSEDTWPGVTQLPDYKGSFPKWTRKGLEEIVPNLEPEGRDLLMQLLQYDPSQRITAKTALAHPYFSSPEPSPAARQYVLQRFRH

inhibition [1]: 2%
inhibition [2]: 5.7%
SMILES: COC(=O)Nc1noc2cc(-c3c(-c4ccccn4)n[nH]c3C)ccc12

inhibition [3]: -0.3%
inhibition [4]: -2.3%
inhibition [5]: 1%
inhibition [6]: 3.3%
inhibition [7]: 1%
inhibition [8]: -0.3%
inhibition [9]: 2%
inhibition [10]: 5%
inhibition [11]: 1.7%
SMILES: Cc1[nH]nc(C2CC2)c1-c1ccc2c(NC(=O)C3CC3)noc2c1

inhibition [12]: 6.3%
inhibition [13]: 2.7%
inhibition [14]: -10%
inhibition [15]: 4%
inhibition [16]: 6.7%
inhibition [17]: 2.3%
inhibition [18]: 3.3%
SMILES: Cc1n[nH]c(C)c1-c1ccc2c(NC(=O)c3ccc(N4CCN(C)CC4)cc3)n[nH]c2c1
